Converted amounts (≈) assume the structure as drawn. Where two headings read alike, the source gives them in different places.
Columns and labels:
EL4: mouse thymoma cell = assay: micro-culture tetrazolium assay, in vitro cytotoxicity on EL4; format: cell-based; details: for IC50: read-out: In vitro cytotoxicities (IC50) EL4
[1] = system: Bewo: human choriocarcinoma cell; assay: micro-culture tetrazolium assay, in vitro cytotoxicity on Bewo; format: cell-based; details: for IC50: read-out: In vitro cytotoxicities (IC50) Bewo
[2] = system: HT-29: human colorectal adenocarcinoma cell; assay: micro-culture tetrazolium assay, in vitro cytotoxicity on HT-29; format: cell-based; details: for IC50: read-out: In vitro cytotoxicities (IC50) HT-29
Experimental: (§1) The anticancer activities of the deoxoartemisinin dimer and trimer of the present invention were measured by a known micro-culture tetrazolium assay (see Carmichel, J.; DeGraff, W. G; Gazdar, A. F.; Minna, J. D.; Mitchell, J. B., Evaluation of a Tetrazolium-based Semiautomated Colorimetric Assay: Assessment of Chemosensitivity testing, Cancer Res., 1987, 47, 936–42).

[3] = system: MCF7: human breast carcinoma cell; assay: micro-culture tetrazolium assay, in vitro cytotoxicity on MCF7; format: cell-based
[4] = system: P388: mouse fibroblast leukemia cell; assay: micro-culture tetrazolium assay, in vitro cytotoxicity on P388; format: cell-based; details: for anticancer activity, fold higher than that of mitomycin: versus mitomycin
water solubility = format: physicochemical
[5] = system: PANC-1: human pancreatic cancer cell; assay: micro-culture tetrazolium assay, in vitro cytotoxicity on PANC-1; format: cell-based; details: for IC50: PANC-1 human pancreatic cancer cell, read-out: In vitro cytotoxicities (IC50) PANC-1
Experimental: as §1

[6] = system: SKOV3: human ovarian carcinoma cell; assay: micro-culture tetrazolium assay, in vitro cytotoxicity on SKOV3; format: cell-based; details: SK-OV-3, read-out: In vitro cytotoxicities (IC50) SKOV3
Experimental: as §1

[7] = system: A549: human lung cancer cell; assay: micro-culture tetrazolium assay, in vitro cytotoxicity on A549; format: cell-based
[8] = Bewo human choriocarcinoma cell
[9] = MCF7 human breast carcinoma cell
[10] = P388 mouse fibroblast leukemia cell
[11] = MCF7 human breast carcinoma cell, read-out: In vitro cytotoxicities (IC50) MCF7
[12] = P388 mouse fibroblast leukemia cell, read-out: In vitro cytotoxicities (IC50) P388

Molecule	IC50 (EL4: mouse thymoma cell; EL4 mouse thymoma cell)	IC50 [1, 8]	IC50 [2]	IC50 [3, 11]	IC50 [4, 12]	IC50 [6]	further results
CC1CCC2C(C)C(CCS(=O)(=O)CCC3OC4OC5(C)CCC6C(C)CCC(C3C)C46OO5)OC3OC4(C)CCC1C32OO4 (centres unmarked) [Compound (IVa2), 12-(2′-sulfonylethyl)deoxoartemisinin dimer]							In vitro cytotoxicities (IC50) EL4 (EL4: mouse thymoma cell; EL4 mouse thymoma cell): 0.54 µg/mL; In vitro cytotoxicities (IC50) Bewo [1, 8]: 1.04 µg/mL; anticancer activity, fold higher than that of taxol and adriamycin ([1]; Bewo, versus taxol and adriamycin): at least 6 fold; In vitro cytotoxicities (IC50) HT-29 [2]: 0.38 µg/mL; In vitro cytotoxicities (IC50) MCF7 [3, 9]: 0.025 µg/mL; In vitro cytotoxicities (IC50) P388 [4, 10]: 5.60 µg/mL
C[C@H]1[C@@H](CCNC(=O)CC[C@H](N)C(=O)NCC[C@H]2O[C@@H]3O[C@@]4(C)CC[C@H]5[C@H](C)CC[C@@H]([C@H]2C)[C@@]35OO4)O[C@@H]2O[C@@]3(C)CC[C@H]4[C@H](C)CC[C@@H]1[C@@]24OO3 [Compound (IVd), 12-[2′-(N-glutamic)-α,β-amide]deoxoartemisinin dimer]	16.5 µg/mL (≈ 22.5 µM)	> 20 µg/mL	6.5 µg/mL (≈ 8.86 µM)	15.3 µg/mL (≈ 20.8 µM)	15.6 µg/mL (≈ 21.3 µM)		water solubility relative to artemisinin (water solubility; compared with artemisinin): five times more water soluble; solubility (water solubility; water): 5210 µg/mL (≈ 7100 µM)
12-(4′-aminobutyl)deoxoartemisinin dimer [Compound (IVc′)]							In vitro cytotoxicities (IC50) EL4 (EL4: mouse thymoma cell; EL4 mouse thymoma cell): >20 µg/mL; In vitro cytotoxicities (IC50) Bewo [1, 8]: >20 µg/mL; In vitro cytotoxicities (IC50) HT-29 [2]: 20.20 µg/mL; In vitro cytotoxicities (IC50) MCF7 [3, 9]: >20 µg/mL; In vitro cytotoxicities (IC50) P388 [4, 10]: >20 µg/mL
CC(=O)O[C@H]1C(=O)[C@@]2(C)[C@H]([C@H](OC(=O)c3ccccc3)[C@]3(O)C[C@H](OC(=O)[C@H](O)[C@@H](NC(=O)c4ccccc4)c4ccccc4)C(C)=C1C3(C)C)[C@]1(OC(C)=O)CO[C@@H]1C[C@@H]2O [Taxol, reference compound]	1.34 µg/mL (≈ 1.57 µM)	7.39 µg/mL (≈ 8.65 µM)	0.01 µg/mL (≈ 0.0117 µM)		2.27 µg/mL (≈ 2.66 µM)	12.3 µg/mL (≈ 14.4 µM)	IC50 [5]: 5.76 µg/mL (≈ 6.75 µM)
C[C@H]1[C@@H](CCNC(=O)CC[C@H]2O[C@@H]3O[C@@]4(C)CC[C@H]5[C@H](C)CC[C@@H]([C@H]2C)[C@@]35OO4)O[C@@H]2O[C@@]3(C)CC[C@H]4[C@H](C)CC[C@@H]1[C@@]24OO3 [Compound (IVc), 12-(2′-amidethyl)deoxoartemisinin Dimer]	6.29 µg/mL (≈ 9.92 µM)	7.5 µg/mL (≈ 11.8 µM)	0.69 µg/mL (≈ 1.09 µM)	0.005 µg/mL (≈ 0.00789 µM)	10.4 µg/mL (≈ 16.4 µM)	12.6 µg/mL (≈ 19.9 µM)	anticancer activity, fold higher than that of adriamycin ([3]; MCF7, versus adriamycin): at least 24 fold; anticancer activity, fold higher than that of mitomycin ([3]; MCF7, versus mitomycin): at least 200 fold
COc1cccc2c1C(=O)c1c(O)c3c(c(O)c1C2=O)C[C@@](O)(C(=O)CO)C[C@@H]3O[C@H]1C[C@H](N)[C@H](O)[C@H](C)O1 [Adriamycin, reference compound]	0.67 µg/mL (≈ 1.23 µM)	6.24 µg/mL (≈ 11.5 µM)	0.1 µg/mL (≈ 0.184 µM)	0.12 µg/mL (≈ 0.221 µM)	0.39 µg/mL (≈ 0.718 µM)		
C[C@H]1[C@@H](CCNC(=O)CC[C@H](NC(=O)CC[C@H]2O[C@@H]3O[C@]4(C)CC[C@H]5[C@H](C)CC[C@@H]([C@H]2C)[C@@]35OO4)C(=O)NCC[C@H]2O[C@@H]3O[C@]4(C)CC[C@H]5[C@H](C)CC[C@@H]([C@H]2C)[C@@]35OO4)O[C@@H]2O[C@]3(C)CC[C@H]4[C@H](C)CC[C@@H]1[C@@]24OO3 [Compound (IVe), deoxoartemisinin trimer]	1.07 µg/mL (≈ 1.01 µM)	18.3 µg/mL (≈ 17.3 µM)	0.09 µg/mL (≈ 0.0852 µM)	0.017 µg/mL (≈ 0.0161 µM)	0.12 µg/mL (≈ 0.114 µM)	11.2 µg/mL (≈ 10.6 µM)	IC50 ([7]; A549 human lung cancer cell, read-out: In vitro cytotoxicities (IC50) A549): 2.45 µg/mL (≈ 2.32 µM); IC50 [5]: 2.69 µg/mL (≈ 2.55 µM); anticancer activity, fold higher than that of taxol ([5]; human pancreatic cancer cell, versus taxol): at least 2 fold; anticancer activity, fold higher than that of adriamycin ([4]; P388, versus adriamycin): at least 3 fold; anticancer activity, fold higher than that of mitomycin ([4]; P388): at least 12 fold; anticancer activity, fold higher than that of taxol ([4]; P388, versus taxol): at least 20 fold; melting point: 138 °C
CO[C@@]12[C@H](COC(N)=O)C3=C(C(=O)C(C)=C(N)C3=O)N1C[C@@H]1N[C@@H]12 [Mitomycin, reference compound]			0.02 µg/mL (≈ 0.0598 µM)				IC50 ([7]; Homo sapiens, A549, read-out: In vitro cytotoxicities (IC50) A549): 1.85 µg/mL (≈ 5.53 µM); IC50 (EL4: mouse thymoma cell; Mus musculus): 3.94 µg/mL (≈ 11.8 µM); IC50 ([1]; Homo sapiens, BeWo): 0.85 µg/mL (≈ 2.54 µM); IC50 ([3]; Homo sapiens, MCF7, read-out: In vitro cytotoxicities (IC50) MCF7): 0.93 µg/mL (≈ 2.78 µM); IC50 ([4]; Mus musculus, P388, read-out: In vitro cytotoxicities (IC50) P388): 1.5 µg/mL (≈ 4.49 µM)
C[C@H]1[C@@H](CCSCC[C@H]2O[C@@H]3O[C@@]4(C)CC[C@H]5[C@H](C)CC[C@@H]([C@H]2C)[C@@]35OO4)O[C@@H]2O[C@@]3(C)CC[C@H]4[C@H](C)CC[C@@H]1[C@@]24OO3 [Compound (IVa1), 12-(2′-ethylsulfide)deoxoartemisinin dimer]	0.23 µg/mL (≈ 0.369 µM)	14.2 µg/mL (≈ 22.8 µM)	0.24 µg/mL (≈ 0.385 µM)	0.017 µg/mL (≈ 0.0273 µM)	0.4 µg/mL (≈ 0.642 µM)		anticancer activity, fold higher than that of mitomycin ([4]; P388): at least 4 fold

Reference: US7205332B2, “Deoxoartemisinin analogs, process for their preparation, and anticancer agent comprising them” (Industry-Academic Cooperation Foundation, Yonsei University, priority 2003, dated 2007)
